Format in all cases: in vivo
The subject of one assay is K562 cells. In words: Spleenic enlargement and spleen Crk immunocytochemistry in K562 implanted nude mice. The conditions noted are these: ip injections. On the procedure:
Control mice were sacrificed on day 42 when secondary leukemia symptoms were observed, such as abdominal swelling and lack of circulation in the peripherals causing loss of digits with red spots under the skin surface. Spleen and any secondary tumors were harvested, fixed in formaldehyde and paraffin embedded as per standard protocols. Paraffin section were obtained and processed for immunocytochemistry. The rehydrated sections were treated with 0.3% H2O2 to inactivate any native peroxidases prior to immuno-probing. The sections were blocked with filter sterilized (0.22 μm) 1% BSA-PBS at room temperature for 1 h. Following blocking, the sections were immuno-probed with a human specific anti-Crk monoclonal primary antibody raised in rabbit against a synthetic peptide corresponding to residues in the SH2 domain, near the N-term of human CrkL protein (Abcam, Cambridge, Mass., USA) in 1% BSA-PBS overnight. Secondary antibody (anti-rabbit) conjugated to HRP was used to detect the presence of primary antibody. The sections were briefly rinsed three times in PBS solution after immuno-probing with secondary antibody, and DAB HRP substrate was added per manufacture's instructions (Sigma St Louis Mo. USA). The reaction was allowed to proceed until sharp contrast between positive and negative controls was observed. For negative controls primary antibody were eliminated. Leukemic mice spleen served as positive controls.
Mice were sacrificed after a decrease in LGI was observed and spleen harvested. […] Control mice also developed random subcutaneous tumors showing Crk expression, indicative of the presence of K562 cells.

Assay [1] deals with Baf3 murine leukemia cells (Wt). In words: Blast cell count in nude mice implanted with Baf3 Wt cells. The conditions noted are these: Baf3Wt; Imatinib 10 mg/kg, AN019 20 mg/kg, AN024 20 mg/kg, oral gavage or ip; day 42. The source says:
(§1) Blood smears were obtained via the tail vein or via the femoral vein every 6th day and blast cells counted and graphically represented.
(§2) Abdominal swelling and decrease in activity was monitored daily, blood smear taken via the tail vein or the femoral vein every 6th day and H&E stained as per standard protocols. 42 days after implantation, mice were sacrificed and spleens harvested.
(§3) Nude mice were intraperitoneally implanted with Baf3 mutant cells (wt, T315I, M351T or E255K). […] Blood was drawn from the femoral vein or tail vein every 6th day and blast cell count determined and graphically represented.

Assay [2] relates to Baf3 murine leukemia cells (T315I). In words: Blast cell count in nude mice implanted with Baf3 T315I cells. To be noted: Baf3T315I; Imatinib 10 mg/kg, AN019 20 mg/kg, AN024 20 mg/kg, oral gavage or ip; day 42.
Excerpt: as §1, §2, §3

Assay [3] relates to 4910 human glioma xenograft cells. In words: Glioma radiation study, nude mice intracranially implanted with 4910 cells. On the procedure: Nude mice were intracranially implanted with 4910 human glioma xenograft cells (1×10^6 cells). Ten days after implantation mice were treated with AN019, AN024 or temozolomide with or without radiation (5 Gy/week). The experiment was terminated at day 40 post implantation.

SMILES strings stand for the structures. “Also recorded” adds a separate entry of the source.

`Cc1ccc(NC(=O)c2cc(C(F)(F)F)cc(C(F)(F)F)c2)cc1Nc1nccc(-c2cccnc2)n1` [AN019, (3,5-bis trifluoromethyl)-N-[4-methyl-3-(4-pyridin-3yl-pyrimidin-2ylamino)-phenyl]-benzamide]: in the assay on K562 cells, the “Crk expression in spleen (immunohistochemistry)” value is “basal levels of Crk expression; also recorded: only basal level expression”. In addition, in the assay on K562 cells, the “Spleenic enlargement (gross observation)” value is reported as “did not show any spleenic enlargement”. Moreover, the “Blast cell count in blood smears” value is recorded as “complete regression of leukemic blast cells” in assay [1] and “significant decrease in blast cell count” in assay [2]. In addition, the “Intracranial tumour size and appearance” value in assay [3] (with radiation (5 Gy/week)) is “tumor size was significantly reduced”; in assay [3] (without radiation), “tumours similar to AN024 treated animals”.
